Measurements: patent US12433901B2, “Compounds and methods for prevention and treatment of coronavirus infections” (ARJIL BIOTECH HOLDING COMPANY LIMITED, priority 2020, dated 2025)
“And” between values parts separate entries of the source, which are not always exact repeats. Identical values can stand only once.

Biological target: SARS-CoV-2 3CLpro (Severe acute respiratory syndrome coronavirus 2, UniProt P0DTD1)
Experiment: ED-FRET protease assay with SARS-CoV-2 3CLpro (DABCYL-[…]-EDANS IQF peptide substrate)
Type: biochemical
Conditions: for inhibitory effect on peptide-cleaving activity of SARS-CoV-2 3CLpro (in words): compound 20 μM, FIG. 1; for IC50: IC50, relative 3CLpro activity
[1] = 0.125 μM SARS-CoV-2 3CLpro and 1.25 μM IQF peptide substrate (0.125p/1.25FP)

| SMILES | inhibitory effect on peptide-cleaving activity of SARS-CoV-2 3CLpro (in words) | IC50 [1] [µM] | IC50 (0.25 μM SARS-CoV-2 3CLpro and 2.5 μM IQF peptide substrate) [µM] | IC50 (0.5 μM SARS-CoV-2 3CLpro and 5 μM IQF peptide substrate (0.5p/5FP)) | inhibition at 20 µM (read-out: SARS-CoV-2 3CLpro inhibition) [%] |
| --- | --- | --- | --- | --- | --- |
| C=C(CC[C@@H](C)[C@H]1CC[C@H]2C3=C(C(=O)C[C@]12C)[C@@]1(C)CC[C@@H](O)[C@](C)(O)[C@@H]1C[C@@H]3O)[C@@H](C)C(=O)O (stereo in doubt) [AR101 DS1] | inhibitory effect |  |  |  |  |
| C=C1C(=O)O[C@H]2/C=C(\C)CC3C=C(CC/C=C(\C)CC[C@H]12)C(=O)O3 (stereo partly drawn) [AR100 DS1] | inhibitory effect | 21.3 |  |  |  |
| C=C(CC[C@@H](C(=O)O)[C@H]1C[C@H](OC(C)=O)[C@@]2(C)C3=C(CC[C@]12C)[C@@]1(C)CC[C@H](O)C(C)(C)[C@@H]1CC3)C(C)C [AR101 DS3] | utmost inhibitory effect | 11.7 | 11.1 | 14.6 µM and 11.1 µM | ~50 |
| C=C(CC[C@@H](C(=O)O)[C@H]1CC[C@@]2(C)C3=CC[C@H]4C(C)(C)[C@@H](O)CC[C@]4(C)C3=CC[C@]12C)C(C)C [AR101 DS4] | inhibitory effect |  |  |  |  |
